In ChEMBL document CHEMBL2440042, “Anti-proliferative activity of hydnocarpin, a natural lignan, is associated with the suppression of Wnt/β-catenin signaling pathway in colon cancer cells” (Bioorg Med Chem Lett, 2013):
The source made the active and inactive calls. No cut-off for these calls is given here.

Assays:
[1] = target: Axin1/beta-catenin (Homo sapiens) (UniProt P35222+O15169); assay: Increase in axin1-beta-catenin interaction in human SW480 cells at 5 to 10 uM after 24 hrs by immunoprecipitation; format: cell-based
SW480 = assay: Inhibition of Wnt/beta-catenin signaling pathway in human SW480 cells assessed as GSK3-beta protein expression at 20 uM after 12 hrs by Western blotting analysis relative to vehicle-treated control

Structure (SMILES): COc1cc([C@H]2Oc3ccc(-c4cc(=O)c5c(O)cc(O)cc5o4)cc3O[C@@H]2CO)ccc1O (relative stereo)
- Activity [1]: Active
- fold change (FC) (SW480): 0.9
